“And” between values parts separate entries of the source, which are not always exact repeats. Identical values can stand only once.
Test system: rat dysuria model that presents DHIC
Experiment: Cystometry and nomogram analysis in rat dysuria model that presents DHIC (partial ligation of urethra)
Type: in vivo
Experimental: The models were produced by partial ligation ((1)1.57 mm) of urethra in rats (9 weeks, female, Sprague-Dawley). Six weeks after preparation of the model, the rats were released the ligation. The next day, the intravesical pressure and the voided volume were measured under awake condition. And the detrusor contractility during voiding phase was evaluated by nomogram analysis using Qmax and Pdet. Additionally, the detrusor overactivity, as index of overactive bladder, and the increase of residual urine volume, as index of underactive bladder, were evaluated.
The dysuria models in this example were prepared in the same manner as in Test Example 1. The test drugs (vehicle: 6% Gelucire, Compound 1 of the present invention 10 mg/kg) were orally administered to each group after two weeks from the preparation of the models twice a day for four weeks. On the day of the final administration, the rats were released the ligation of urethra. The next day, the intravesical pressure and the voided volume were measured using cystometry under conscious condition. The detrusor overactivity, as an index of overactive bladder, and the increase of residual urine volume, as an index of underactive bladder, were evaluated. Additionally, the detrusor contractility during voiding phase was evaluated by nomogram analysis using Qmax and Pdet.
In the same manner as Test Example 1, the rats were released the ligation of urethra at six weeks after the preparation of the model. The next day, the intravesical pressure and the voided volume were measured using cystometry under conscious condition. The detrusor overactivity, as an index of overactive bladder, and the increase of residual urine volume, as an index of underactive bladder, were evaluated. Additionally, the detrusor contractility during voiding phase was evaluated by nomogram analysis using Qmax and Pdet. Tamsulosin (3 μg/kg) was administered intravenously to the dysuria rat at the evaluation (six weeks after preparation of the model).

In the case of CC1=C(CCCCCCCCCCCCCCCO)C(C)(C)CCC1=O [Compound 1 of the present invention, 3-(15-hydroxypentadecyl)-2,4,4-trimethyl-2-cyclohexene-1-one], the “Detrusor contractility during voiding phase: distance from the origin in nomogram analysis (Qmax, Pdet)” value (10 mg/kg orally twice a day for four weeks, control 4.24±0.53, sham 24.75±3.14) is reported as 10.5±2.3, the Residual urine volume (female Sprague-Dawley rats, 10 mg/kg orally twice a day for four weeks, conscious cystometry, control 0.57 ± 0.06, sham 0.10 ± 0.03, 10 mg/kg) is reported as 0.28 ± 0.13 mL and the Detrusor overactivity (female Sprague-Dawley rats, 10 mg/kg orally twice a day for four weeks, conscious cystometry, control 1.73 ± 0.10, sham 0.19 ± 0.09, 10 mg/kg) is reported as 0.63±0.14 times/min and 0.63 ± 0.10 times/min.
With CCOc1ccccc1OCCN[C@H](C)Cc1ccc(OC)c(S(N)(=O)=O)c1 [Tamsulosin, reference compound] the “Detrusor contractility in nomogram analysis” value (3 μg/kg intravenously at the evaluation, vs control (FIG. 2)) was “no effect” and the Detrusor overactivity (female Sprague-Dawley rats, 3 μg/kg intravenously at the evaluation, conscious cystometry, control 1.73 ± 0.10) was 0.68±0.33 times/min.

Reference: US20170035706A1, “DETRUSOR HYPERACTIVITY WITH IMPAIRED CONTRACTILITY AMELIORATING AGENT” (TAIHO PHARMACEUTICAL CO., LTD., priority 2015, published 2017)
